Results: patent publication US6180622A, “Imidazo[5,1-b]thiazol-3-yl carbapenem antimicrobials” (priority 1996, dated 2001)
≈ marks a conversion by molar mass, not a printed value.

Tests used:
[1] = system: E. coli GN206; experiment: Antimicrobial activity (minimum inhibitory concentration); type: cell-based; details: Escherichia coli
Experimental: (§1) For representative compounds among the novel carbapenem derivatives of the present invention, the minimum inhibitory concentration (MIC, μg/ml) against various pathogenic bacteria was measured in accordance with a method described in CHEMOTHERAPY, Vol. 16, No. 1, 99 (1968).

[2] = system: K. pneumoniae PCI602; experiment: as above; type: cell-based; details: Klebsiella pneumoniae
Experimental: as §1

[3] = system: M. morganii 1510; experiment: as above; type: cell-based; details: Morganella morganii
Experimental: as §1

[4] = system: C. freundii GN346; experiment: as above; type: cell-based; details: Citrobacter freundii
Experimental: as §1

[5] = system: S. marcescens No. 1; experiment: as above; type: cell-based; details: Serratia marcescens
Experimental: as §1

[6] = system: P. vulgaris GN76; experiment: as above; type: cell-based; details: Proteus vulgaris; P. vulgaris GN76; read-out: MIC
Experimental: as §1

[7] = system: E. cloacae G-0008; experiment: as above; type: cell-based; details: Enterobacter cloacae, G0008
Experimental: as §1

[8] = system: S. aureus M126; experiment: as above; type: cell-based; details: Staphylococcus aureus; S. aureus M126, highly meticillin-resistant strain
Experimental: as §1

[9] = system: Ps. aeruginosa GN10362; experiment: as above; type: cell-based; details: Pseudomonas aeruginosa; Ps. aeruginosa GN10362; read-out: MIC
Experimental: as §1

[10] = system: E. coli NIHJ JC-2; experiment: as above; type: cell-based; details: Escherichia coli, NIHJJC2
Experimental: as §1

[11] = system: S. aureus 209P JC-1; experiment: as above; type: cell-based; details: Staphylococcus aureus
Experimental: as §1

[12] = Stability against DHP-I (pig); type: in vitro ADME; details: kidney dhp-i, 100 μg (potency)/ml, 37° C., pH 7.0, read-out: residue (%) of the carbapenem derivative
Experimental: (§2) The stability of representative compounds, among the novel carbapenem derivatives of the present invention, against kidney dehydropeptidase-I (DHP-I) of a pig and a mouse was measured, and the residue (%) of the carbapenem derivatives three hr after the initiation of the test is summarized in Table 6.
(§3) 1.5 g of a kidney acetone powder (manufactured by Sigma) Porcine Type II (Lot. 33H7225) was suspended in 100 ml of 50 mM Tris-HCl buffer (pH 7.0) containing 20% butanol, and the suspension was stirred at 5° C. for 48 hr. The suspension was then dialyzed against 50 mM Tris-HCl buffer (pH 7.0) (a cellulose tube 30/32 Viskase Sales Corp.) until the odor of butanol disappeared, thereby removing butanol. The dialyzate is centrifuged at 10000×g (KUBOTA 6800) for 20 min, and the supernatant was obtained as a partially purified DHP-I. This partially purified DHP-I was subdivided and stored at -80° C. The above procedure was repeated, except that 1.5 g of Mouse (Lot. 23F8105) was used. Thus, a partially purified DHP-I was prepared and stored.
(§4) For the carbapenem as the substrate agent, a solution (2000 μg (potency)/ml) was prepared using sterilized, purified water. For the sample solution, the carbapenem (2000 μg (potency)/ml) solution was added to the partially purified DHP-I of each animal to a final concentration of 100 μg (potency)/ml). For the blank, 50 mM Tris-HCl buffer (pH 7.0) was used instead of the partially purified DHP-I of each animal. The reaction was allowed to proceed at 37° C. for 3 hr, and a given amount of the reaction mixture was sampled. Methanol in the same amount as the sampled reaction mixture was added under ice cooling to terminate the reaction. The reaction mixture was filtered through a filter (Sanprep LCR 13-LH manufactured by MILLIPORE) and subjected to HPLC (column: CAPCELL PACK C18SG120, manufactured by Shiseido Co., Ltd.; detection: UV; mobile layer: acetonitrile/10 mM aqueous acetic acid solution) to determined the residue (%).
(§5) Residue (%)=(Sample Peak Area/Blank Peak Area)×100

[13] = Stability against DHP-I (mouse); type: in vitro ADME; details: kidney dhp-i, 100 μg (potency)/ml, 37° C., pH 7.0, read-out: residue (%) of the carbapenem derivative
Experimental: as §2, §3, §4, §5

SMILES | MIC [1] [µg/mL] | MIC [2] [µg/mL] | MIC [3] [µg/mL] | MIC [4] [µg/mL] | MIC [5] [µg/mL] | MIC [6] [µg/mL] | MIC [7] [µg/mL] | MIC [8] [µg/mL] | MIC [9] [µg/mL] | MIC [10] [µg/mL] | MIC [11] [µg/mL] | remaining at 3 h [12] [%] | remaining at 3 h [13] [%]
C[C@@H](O)[C@H]1C(=O)N2C(C(=O)O)=C(S[C@@H]3CN[C@H](C(O)c4cn5c[n+](C)cc5s4)C3)[C@H](C)[C@H]12 (single isomer, unassigned) [Ex. 18] | 0.05 | 0.1 | 0.2 | 0.2 | 0.1 | 0.39 | 0.05 | 12.5 | 3.13 | 0.05 | < 0.025 | – | –
C[C@@H](O)[C@H]1C(=O)N2C(C(=O)O)=C(S[C@@H]3CN[C@H](C(=O)N(C)C)C3)[C@H](C)[C@H]12 [Compound C, Meropenem] | – | – | – | – | – | – | – | – | – | – | – | 71 | 18
C[C@@H](O)[C@H]1C(=O)N2C(C(=O)O)=C(S[C@@H]3CN[C@H](C(=O)NCc4n5ccsc5c[n+]4C)C3)[C@H](C)[C@H]12 [Ex. 2, (1R,5S,6S)-6-((1R)-1-Hydroxyethyl)-1-methyl-2-[(3S,5S)-5-[(6-methylimidazo[5,1-b]thiazolium-5-yl)methylaminocarbonyl]pyrrolidin-3-yl]thiocarbapen-2-em-3-carboxylic acid chloride] | 0.05 | 0.1 | 0.39 | 0.2 | 0.2 | 1.56 | 0.1 | 6.25 | 12.5 | 0.1 | < 0.025 | – | –
C[C@@H](O)[C@H]1C(=O)N2C(C(=O)O)=C(S[C@@H]3CN[C@H](/C=C/c4cn5c[n+](CC(N)=O)cc5s4)C3)[C@H](C)[C@H]12 [Ex. 53A] | 0.1 | 0.1 | 0.39 | 0.1 | 0.1 | 0.78 | 0.1 | 12.5 | 0.78 | 0.05 | 0.05 | – | –
C[C@@H](O)[C@H]1C(=O)N2C(C(=O)O)=C(S[C@@H]3CN[C@H](/C=C\c4cn5c[n+](CC(N)=O)cc5s4)C3)[C@H](C)[C@H]12 [Ex. 53B, (1R,5S,6S)-2-[(3S,5S)-5-[2(Z)-(6-(carbamoylmethyl)imidazo[5,1-b]thiazolium-2-yl)ethenyl]pyrrolidin-3-yl]thio-6-((1R)-1-hydroxyethyl)-1-methylcarbapen-2-em-3-carboxylic acid iodide] | 0.05 | 0.05 | 0.2 | 0.05 | 0.1 | 0.39 | 0.05 | 3.13 | 0.78 | 0.05 | < 0.025 | – | –
Cc1n2cc(C[C@@H]3C[C@H](SC4=C(C(=O)O)N5C(=O)[C@H]([C@@H](C)O)[C@H]5[C@H]4C)CN3)sc2c[n+]1CCC(N)=O [Ex. 67, (1R,5S,6S)-2-[(3S,5S)-5-(6-(2-Carbamoylethyl)-5-methylimidazo[5,1-b]thiazolium-2-yl)methylpyrrolidin-3-yl]thio-6-((1R)-1-hydroxyethyl)-1-methylcarbapen-2-em-3-carboxylic acid chloride] | 0.1 | 0.1 | 0.39 | 0.05 | 0.39 | 0.78 | 0.05 | 12.5 | 0.78 | 0.05 | < 0.025 | – | –
C[C@@H](O)[C@H]1C(=O)N2C(C(=O)O)=C(S[C@@H]3CN[C@H](/C=C\c4cn5c[n+](CCC(N)=O)cc5s4)C3)[C@H](C)[C@H]12 [Ex. 76, (1R,5S,6S)-2-[(3S,5S)-5-[2(Z)-(6-(2-Carbamoylethyl)imidazo[5,1-b]thiazolium-2-yl)ethenyl]pyrrolidin-3-yl]thio-6-((1R)-1-hydroxyethyl)-1-methylcarbapen-2-em-3-carboxylic acid chloride] | 0.1 | 0.1 | 0.2 | 0.1 | 0.2 | 0.39 | 0.05 | 6.25 | 0.78 | 0.05 | < 0.025 | – | –

Continued, values first:

MIC [1] [µg/mL] | MIC [2] [µg/mL] | MIC [3] [µg/mL] | MIC [4] [µg/mL] | MIC [5] [µg/mL] | MIC [6] [µg/mL] | MIC [7] [µg/mL] | MIC [8] [µg/mL] | MIC [9] [µg/mL] | MIC [10] [µg/mL] | MIC [11] [µg/mL] | remaining at 3 h [12] [%] | remaining at 3 h [13] [%] | SMILES
0.1 (≈ 0.215 µM) | 0.1 (≈ 0.215 µM) | 0.39 (≈ 0.839 µM) | 0.1 (≈ 0.215 µM) | 0.2 (≈ 0.431 µM) | 0.78 (≈ 1.68 µM) | 0.1 (≈ 0.215 µM) | 6.25 (≈ 13.5 µM) | 1.56 (≈ 3.36 µM) | 0.05 (≈ 0.108 µM) | < 0.025 | – | – | C[C@@H](O)[C@H]1C(=O)N2C(C(=O)O)=C(S[C@@H]3CN[C@H](C(O)c4csc5cncn45)C3)[C@H](C)[C@H]12 (single isomer, unassigned) [Ex. 6]
0.1 (≈ 0.217 µM) | 0.2 (≈ 0.434 µM) | 0.78 (≈ 1.69 µM) | 0.2 (≈ 0.434 µM) | 0.2 (≈ 0.434 µM) | 1.56 (≈ 3.39 µM) | 0.1 (≈ 0.217 µM) | 25 (≈ 54.3 µM) | 6.25 (≈ 13.6 µM) | 0.1 (≈ 0.217 µM) | 0.1 (≈ 0.217 µM) | – | – | C[C@@H](O)[C@H]1C(=O)N2C(C(=O)O)=C(S[C@@H]3CN[C@H](/C=C\c4csc5cncn45)C3)[C@H](C)[C@H]12 [Ex. 38, (1R,5S,6S)-6-((1R)-1-Hydroxyethyl)-2-[(3S,5S)-5-[2(Z)-(imidazo[5,1-b]thiazol-3-yl)ethenyl]pyrrolidin-3-yl]thio-1-methylcarbapen-2-em-3-carboxylic acid]
< 0.025 | 0.05 | 0.2 | 0.1 | 0.05 | 0.39 | 0.05 | 6.25 | 6.25 | < 0.025 | < 0.025 | – | – | C[C@@H](O)[C@H]1C(=O)N2C(C(=O)O)=C(S[C@@H]3CN[C@H](/C=C\c4csc5c[n+](C)cn45)C3)[C@H](C)[C@H]12 [Ex. 39, (1R,5S,6S)-6-((1R)-1-Hydroxyethyl)-1-methyl-2-[(3S,5S)-5-[2(Z)-(6-methylimidazo[5,1-b]thiazolium-3-yl)ethenyl]pyrrolidin-3-yl]thiocarbapen-2-em-3-carboxylic acid chloride]
0.05 | 0.1 | 0.39 | 0.1 | 0.1 | 0.78 | 0.05 | 12.5 | 0.78 | 0.05 | 0.05 | – | – | C[C@@H](O)[C@H]1C(=O)N2C(C(=O)O)=C(S[C@@H]3CN[C@H](c4csc5c[n+](C)cn45)C3)[C@H](C)[C@H]12 [Ex. 50, (1R,5S,6S)-6-((1R)-1-Hydroxyethyl)-1-methyl-2-[(3S,5S)-5-[(6-methylimidazo[5,1-b]thiazolium)-3-yl]pyrrolidin-3-yl]thiocarbapen-2-em-3-carboxylic acid chloride]
0.05 | 0.05 | 0.2 | 0.05 | 0.1 | 0.39 | < 0.025 | 3.13 | 1.56 | < 0.025 | < 0.025 | – | – | C[C@@H](O)[C@H]1C(=O)N2C(C(=O)O)=C(S[C@@H]3CN[C@H](/C=C\c4csc5c[n+](CC(N)=O)cn45)C3)[C@H](C)[C@H]12 [Ex. 54]
0.1 (≈ 0.188 µM) | 0.1 (≈ 0.188 µM) | 0.39 (≈ 0.734 µM) | 0.1 (≈ 0.188 µM) | 0.1 (≈ 0.188 µM) | 0.78 (≈ 1.47 µM) | 0.05 (≈ 0.094 µM) | 6.25 (≈ 11.8 µM) | 1.56 (≈ 2.93 µM) | 0.05 (≈ 0.094 µM) | < 0.025 | – | – | C[C@@H](O)[C@H]1C(=O)N2C(C(=O)[O-])=C(S[C@@H]3CN[C@H](/C=C\c4csc5c[n+](CCC(N)=O)cn45)C3)[C@H](C)[C@H]12 [Ex. 72, (1R,5S,6S)-2-[(3S,5S)-5-[2(Z)-(6-(2-Carbamoylethyl)imidazo[5,1-b]thiazolium-3-yl)ethenyl]pyrrolidin-3-yl]thio-6-((1R)-1-hydroxyethyl)-1-methylcarbapen-2-em-3-carboxylate]
